Data taken from patent publication US9969752B2, “Inhibitors of HIF prolyl hydroxylase” (MERCK SHARP & DOHME CORP., priority 2014, dated 2018).

The compounds below were run against T1, Human HIF-PHD2 (Homo sapiens, UniProt Q9GZT9) (assay: Inhibition of the hydroxylation of a HIF peptide by PHD2 (time resolved fluorescence, 384-well)). Conditions: FLAG-tagged full length PHD2; 0.2 μM 2-oxoglutarate, 0.5 μM HIF-1α peptide; 45 minutes at room temperature; read-out: Human HIF-PHD2 IC50.
T1 construct: FLAG-tagged full length PHD2 expressed in and purified from baculovirus-infected Sf9 cells; FLAG; made in house; host or cells: baculovirus-infected Sf9 cells
Assay type: biochemical

T1 sequence (Q9GZT9 whole entry): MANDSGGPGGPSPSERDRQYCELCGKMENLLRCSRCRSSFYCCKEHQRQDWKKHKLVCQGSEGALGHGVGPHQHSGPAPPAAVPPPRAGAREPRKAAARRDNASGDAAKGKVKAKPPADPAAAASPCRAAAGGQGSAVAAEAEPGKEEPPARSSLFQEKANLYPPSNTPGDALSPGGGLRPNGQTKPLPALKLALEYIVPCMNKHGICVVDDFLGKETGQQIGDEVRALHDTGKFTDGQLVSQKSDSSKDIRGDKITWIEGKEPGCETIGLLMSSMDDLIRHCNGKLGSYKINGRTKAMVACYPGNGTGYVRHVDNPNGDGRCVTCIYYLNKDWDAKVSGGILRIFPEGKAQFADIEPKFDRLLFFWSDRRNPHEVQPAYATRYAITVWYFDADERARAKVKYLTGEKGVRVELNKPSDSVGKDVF

SMILES	IC50 [nM]
CN1CC(c2ccc(C(F)(F)F)cc2)n2c(=O)c(C(=O)NCC(=O)O)c(O)c3cc(F)cc1c32 (centres unmarked) [Example 122, 2-(9-Fluoro-7-hydroxy-1-methyl-5-oxo-3-(4-(trifluoromethyl)phenyl)-1,2,3,5-tetrahydropyrido[1,2,3-de]quinoxaline-6-carboxamido)acetic acid]	30
CN1c2cc(F)cc3c(O)c(C(=O)NCC(=O)O)c(=O)n(c23)CC1c1ccc(C(F)(F)F)cc1 (centres unmarked) [Example 123, 2-(9-Fluoro-7-hydroxy-1-methyl-5-oxo-2-(4-(trifluoromethyl)phenyl)-1,2,3,5-tetrahydropyrido[1,2,3-de]quinoxaline-6-carboxamido)acetic acid]	15
O=C(O)CNC(=O)c1c(O)c2cc(OC(F)(F)F)cc3c2n(c1=O)CC(c1ccc(C(F)(F)F)cc1)O3 (centres unmarked) [Example 124, 2-(7-Hydroxy-5-oxo-9-(trifluoromethoxy)-2-(4-(trifluoromethyl)phenyl)-3,5-dihydro-2H-[1,4]oxazino[2,3,4-ij]quinoline-6-carboxamido)acetic acid]	9.6
O=C(O)CNC(=O)c1c(O)c2cccc3c2n(c1=O)C(c1ccc(C(F)(F)F)nc1)CN3 (centres unmarked) [Example 127, 2-(7-Hydroxy-5-oxo-3-(6-(trifluoromethyl)pyridin-3-yl)-1,2,3,5-tetrahydropyrido[1,2,3-de]quinoxaline-6-carboxamido)acetic acid]	3.6
CN1CC(c2ccc(C(F)(F)F)nc2)n2c(=O)c(C(=O)NCC(=O)O)c(O)c3cccc1c32 (centres unmarked) [Example 128, 2-(7-Hydroxy-1-methyl-5-oxo-3-(6-(trifluoromethyl)pyridin-3-yl)-1,2,3,5-tetrahydropyrido[1,2,3-de]quinoxaline-6-carboxamido)acetic acid]	6.9
CS(=O)(=O)Nc1ccc(-c2ccc3c(O)c(C(=O)NCC(=O)O)c(=O)n4c3c2OCC4c2ccc(C(F)(F)F)cc2)cc1 (centres unmarked) [Example 134, N-[(7-Hydroxy-10-{4-[(methylsulfonyl)amino]phenyl}-5-oxo-3-[4-(trifluoromethyl)phenyl]-2,3-dihydro-5H-[1,4]oxazino[2,3,4-ij]quinolin-6-yl)carbonyl]glycine]	38
NC(=O)c1ccc(-c2ccc(C3COc4cccc5c(O)c(C(=O)NCC(=O)O)c(=O)n3c45)cc2)cc1 (centres unmarked) [Example 141, N-{[3-(4′-Carbamoylbiphenyl-4-yl)-7-hydroxy-5-oxo-2,3-dihydro-5H-[1,4]oxazino[2,3,4-ij]quinolin-6-yl]carbonyl}glycine]	6.1
O=C(O)CNC(=O)c1c(O)c2ccc(-c3cccnc3)c3c2n(c1=O)CCO3 [Example 153, N-[(7-Hydroxy-5-oxo-10-pyridin-3-yl-2,3-dihydro-5H-[1,4]oxazino[2,3,4-ij]quinolin-6-yl)carbonyl]glycine]	3.6
O=C(O)CNC(=O)c1c(O)c2cccc3c2n(c1=O)C(c1ccc(Cl)cc1)CO3 (centres unmarked) [Example 157, 2-(7-Hydroxy-5-oxo-3-(4-chlorophenyl)-3,5-dihydro-2H-[1,4]oxazino[2,3,4-ij]quinoline-6-carboxamido)acetic acid]	25

Same assay, conditions: FLAG-tagged full length PHD2; 0.2 μM 2-oxoglutarate, 0.5 μM HIF-1α peptide; 45 minutes at room temperature; read-out: MS m/z (M + 1)+ and human HIF-PHD2 IC50

SMILES	IC50 [nM]
COc1cncc(-c2ccc3c(O)c(C(=O)NCC(=O)O)c(=O)n4c3c2OCC4c2ccc(C(F)(F)F)cc2)c1 (centres unmarked) [Example 135, N-({7-hydroxy-10-(5-methoxypyridin-3-yl)-5-oxo-3-[4-(trifluoromethyl)phenyl]-2,3-dihydro-5H-[1,4]oxazino[2,3,4-ij]quinolin-6-yl}carbonyl)glycine]	15
O=C(O)CNC(=O)c1c(O)c2ccc(-c3ccccn3)c3c2n(c1=O)C(c1ccc(C(F)(F)F)cc1)CO3 (centres unmarked) [Example 136, N-({7-hydroxy-5-oxo-10-pyridin-2-yl-3-[4-(trifluoromethyl)phenyl]-2,3-dihydro-5H-[1,4]oxazino[2,3,4-ij]quinolin-6-yl}carbonyl)glycine]	19
COc1ncc(-c2ccc3c(O)c(C(=O)NCC(=O)O)c(=O)n4c3c2OCC4c2ccc(C(F)(F)F)cc2)cn1 (centres unmarked) [Example 137, N-({7-hydroxy-10-(2-methoxypyrimidin-5-yl)-5-oxo-3-[4-(trifluoromethyl)phenyl]-2,3-dihydro-5H-[1,4]oxazino[2,3,4-ij]quinolin-6-yl}carbonyl)glycine]	14
O=C(O)CNC(=O)c1c(O)c2ccc(-c3cncnc3)c3c2n(c1=O)C(c1ccc(C(F)(F)F)cc1)CO3 (centres unmarked) [Example 138, N-({7-hydroxy-5-oxo-10-pyrimidin-5-yl-3-[4-(trifluoromethyl)phenyl]-2,3-dihydro-5H-[1,4]oxazino[2,3,4-ij]quinolin-6-yl}carbonyl)glycine]	12
NC(=O)c1cccc(-c2ccc3c(O)c(C(=O)NCC(=O)O)c(=O)n4c3c2OCC4c2ccc(C(F)(F)F)cc2)c1 (centres unmarked) [Example 139, N-({10-(3-carbamoylphenyl)-7-hydroxy-5-oxo-3-[4-(trifluoromethyl)phenyl]-2,3-dihydro-5H-[1,4]oxazino[2,3,4-ij]quinolin-6-yl}carbonyl)glycine]	14
O=C(O)CNC(=O)c1c(O)c2ccc(-c3ccn[nH]3)c3c2n(c1=O)C(c1ccc(C(F)(F)F)cc1)CO3 (centres unmarked) [Example 140, 2-(7-hydroxy-5-oxo-10-(1H-pyrazol-5-yl)-3-(4-(trifluoromethyl)phenyl)-3,5-dihydro-2H-[1,4]oxazino[2,3,4-ij]quinoline-6-carboxamido)acetic acid]	11
O=C(O)CNC(=O)c1c(O)c2cccc3c2n(c1=O)C(c1ccc(-c2cccc(Cl)c2)cc1)CO3 (centres unmarked) [Example 142, N-{[3-(3′-chlorobiphenyl-4-yl)-7-hydroxy-5-oxo-2,3-dihydro-5H-[1,4]oxazino[2,3,4-ij]quinolin-6-yl]carbonyl}glycine]	19
O=C(O)CNC(=O)c1c(O)c2cccc3c2n(c1=O)C(c1ccc(-c2ccc(C(F)(F)F)nc2)cc1)CO3 (centres unmarked) [Example 143, N-[(7-hydroxy-5-oxo-3-{4-[6-(trifluoromethyl)pyridin-3-yl]phenyl}-2,3-dihydro-5H-[1,4]oxazino[2,3,4-ij]quinolin-6-yl)carbonyl]glycine]	4.7
Cc1ccc(-c2ccc(C3COc4cccc5c(O)c(C(=O)NCC(=O)O)c(=O)n3c45)cc2)cc1 (centres unmarked) [Example 144, N-{[7-hydroxy-3-(4′-methylbiphenyl-4-yl)-5-oxo-2,3-dihydro-5H-[1,4]oxazino[2,3,4-ij]quinolin-6-yl]carbonyl}glycine]	10
COc1ccc(-c2ccc(C3COc4cccc5c(O)c(C(=O)NCC(=O)O)c(=O)n3c45)cc2)cc1 (centres unmarked) [Example 145, N-{[7-hydroxy-3-(4′-methoxybiphenyl-4-yl)-5-oxo-2,3-dihydro-5H-[1,4]oxazino[2,3,4-ij]quinolin-6-yl]carbonyl}glycine]	6.7
N#Cc1ccc(-c2ccc(C3COc4cccc5c(O)c(C(=O)NCC(=O)O)c(=O)n3c45)cc2)cc1 (centres unmarked) [Example 146, N-{[3-(4′-cyanobiphenyl-4-yl)-7-hydroxy-5-oxo-2,3-dihydro-5H-[1,4]oxazino[2,3,4-ij]quinolin-6-yl]carbonyl}glycine]	6.1
COc1ncccc1-c1ccc(C2COc3cccc4c(O)c(C(=O)NCC(=O)O)c(=O)n2c34)cc1 (centres unmarked) [Example 147, N-({7-hydroxy-3-[4-(2-methoxypyridin-3-yl)phenyl]-5-oxo-2,3-dihydro-5H-[1,4]oxazino[2,3,4-ij]quinolin-6-yl}carbonyl)glycine]	18
O=C(O)CNC(=O)c1c(O)c2cccc3c2n(c1=O)C(c1ccc(-c2ccncc2)cc1)CO3 (centres unmarked) [Example 148, N-{[7-hydroxy-5-oxo-3-(4-pyridin-4-ylphenyl)-2,3-dihydro-5H-[1,4]oxazino[2,3,4-ij]quinolin-6-yl]carbonyl}glycine]	5.7
Nc1ccc(-c2ccc(C3COc4cccc5c(O)c(C(=O)NCC(=O)O)c(=O)n3c45)cc2)cn1 (centres unmarked) [Example 149, N-({3-[4-(6-aminopyridin-3-yl)phenyl]-7-hydroxy-5-oxo-2,3-dihydro-5H-[1,4]oxazino[2,3,4-ij]quinolin-6-yl}carbonyl)glycine]	13
N#Cc1cccc(-c2ccc(C3COc4cccc5c(O)c(C(=O)NCC(=O)O)c(=O)n3c45)cc2)c1 (centres unmarked) [Example 150, N-{[3-(3′-cyanobiphenyl-4-yl)-7-hydroxy-5-oxo-2,3-dihydro-5H-[1,4]oxazino[2,3,4-ij]quinolin-6-yl]carbonyl}glycine]	13
O=C(O)CNC(=O)c1c(O)c2cccc3c2n(c1=O)C(c1ccc(-c2cccnc2)cc1)CO3 (centres unmarked) [Example 151, N-{[7-hydroxy-5-oxo-3-(4-pyridin-3-ylphenyl)-2,3-dihydro-5H-[1,4]oxazino[2,3,4-ij]quinolin-6-yl]carbonyl}glycine]	9.2
O=C(O)CNC(=O)c1c(O)c2cccc3c2n(c1=O)C(c1ccc(-c2ccn[nH]2)cc1)CO3 (centres unmarked) [Example 152, 2-(3-(4-(1H-pyrazol-5-yl)phenyl)-7-hydroxy-5-oxo-3,5-dihydro-2H-[1,4]oxazino[2,3,4-ij]quinoline-6-carboxamido)acetic acid]	11
COc1ccc(-c2ccc3c(O)c(C(=O)NCC(=O)O)c(=O)n4c3c2OCC4)cn1 [Example 154, N-{[7-hydroxy-10-(6-methoxypyridin-3-yl)-5-oxo-2,3-dihydro-5H-[1,4]oxazino[2,3,4-ij]quinolin-6-yl]carbonyl}glycine]	3.7
Cc1noc(C)c1-c1ccc2c(O)c(C(=O)NCC(=O)O)c(=O)n3c2c1OCC3 [Example 155, N-{[10-(3,5-dimethylisoxazol-4-yl)-7-hydroxy-5-oxo-2,3-dihydro-5H-[1,4]oxazino[2,3,4-ij]quinolin-6-yl]carbonyl}glycine]	3.3
Nc1ccc(-c2ccc3c(O)c(C(=O)NCC(=O)O)c(=O)n4c3c2OCC4)cn1 [Example 156, N-{[10-(6-aminopyridin-3-yl)-7-hydroxy-5-oxo-2,3-dihydro-5H-[1,4]oxazino[2,3,4-ij]quinolin-6-yl]carbonyl}glycine]	8.1
